The results in this text go back to patent US8394578B2, “Method of forming resist pattern and negative tone-development resist composition” (Tokyo Ohka Kogyo Co., Ltd., priority 2010, dated 2013).

A short description of this data set: Solubility in organic solvent (Test Example 1). The class given is physicochemical. To be noted: monomer, stirred for 1 hour; for degree of dissolution in MEK: 1 g added to MEK at 25° C.; for degree of dissolution in PGME: 1 g added to PGME at 25° C.; for degree of dissolution in PGMEA: 1 g added to PGMEA at 25° C.; for degree of dissolution in Butyl acetate: 1 g added to butyl acetate at 25° C. The text has this:
Among the monomers used in Polymer Synthesis Examples 1 to 4 and Comparative Polymer Synthesis Examples 1 to 4, with respect to compounds (m0-1) and (m0-2) which are classified as a structural unit (a0), compounds (m2-1) and (m2-2) which are classified as a structural unit (a2), a compound in which the —S(═O)2— portion of the compound (m0-1) has been replaced with —C(═O)— (a compound in which the cyclic group within the compound (m0-1) has been replaced with the cyclic group of the compound (m2-1), hereafter referred to as compound (m2-3)), and polymeric compounds 1, 1′ and 4′, the solubility in an organic solvent was evaluated as follows.
1 g of each compound was added to an organic solvent indicated in Table 1 at 25° C., and stirred for 1 hour. After the stirring, the degree of dissolution of each compound in each organic solvent was evaluated with the following criteria. […]

For the molecule `C=C(C)C(=O)OCC(=O)OC1C2CC3C1OS(=O)(=O)C3C2` (stereo not shown) [Compound (m0-1)], the “degree of dissolution in MEK” value is recorded as “B (15% by weight or more but less than 40% by weight)”, the “degree of dissolution in PGME” value was “C (7% by weight or more but less than 15% by weight)”, the “degree of dissolution in PGMEA” value is recorded as “C (7% by weight or more but less than 15% by weight)” and the “degree of dissolution in Butyl acetate” value is listed as “C (7% by weight or more but less than 15% by weight)”.

For `C=C(C)C(=O)OC1C2CC3C1OS(=O)(=O)C3C2` (stereo not shown) [Compound (m0-2)], the “degree of dissolution in MEK” value was “B (15% by weight or more but less than 40% by weight)”, the “degree of dissolution in PGME” value was “C (7% by weight or more but less than 15% by weight)”, the “degree of dissolution in PGMEA” value was “C (7% by weight or more but less than 15% by weight)” and the “degree of dissolution in Butyl acetate” value is “D (less than 7% by weight)”.

In the case of `C=C(C)C(=O)OC1C2CC3C(=O)OC1C3C2` (stereo not shown) [Compound (m2-1)], the “degree of dissolution in MEK” value is “B (15% by weight or more but less than 40% by weight)”, the “degree of dissolution in PGME” value is listed as “C (7% by weight or more but less than 15% by weight)”, the “degree of dissolution in PGMEA” value is reported as “B (15% by weight or more but less than 40% by weight)” and the “degree of dissolution in Butyl acetate” value is listed as “C (7% by weight or more but less than 15% by weight)”.

Take `C=C(C)C(=O)OC1CCOC1=O` (stereo not shown) [Compound (m2-2)]: the “degree of dissolution in MEK” value is listed as “A (40% by weight or more)”, the “degree of dissolution in PGME” value is “A (40% by weight or more)”, the “degree of dissolution in PGMEA” value is listed as “A (40% by weight or more)” and the “degree of dissolution in Butyl acetate” value is listed as “A (40% by weight or more)”.
